Measurements published in PMC6657668, “Porcine Beta-Defensin 2 Provides Protection Against Bacterial Infection by a Direct Bactericidal Activity and Alleviates Inflammation via Interference With the TLR4/NF-κB Pathway” (Frontiers in Immunology, 2019).
Where two headings read alike, the source gives them in different places. Where no end group is shown, it is not given here.

Columns and labels:
RAW 264.7 cells = assay: Cytokine levels of RAW 264.7 cells after treatment with LPS (ELISA), with or without pathway inhibitor; assay type: cell-based, mouse; conditions: 1 h pre-treatment, LPS 1 μg/ml, 16 h, n = 6
Description: RAW 264.7 cells and RAW 264.7 cells stably expressing PBD-2 were pre-treated with S. Typhimurium at MOI = 10:1 for 1 h or with LPS (1 μg/ml) for 16 h, washed with PBS twice and incubated with RPMI 1640 that contained PBS or PBD-2 (10 μg/mL) for 16 h. RAW 264.7 cells stably expressing PBD-2 were maintained in RPMI 1640 that contained PBS for 16 h (n = 6 for each group). The expression levels of proinflammatory cytokines in the cell culture supernatant were determined through ELISA in accordance with the manufacturer's instruction.
In the inhibition assay, RAW 264.7 cells were pre-treated with 4 μg/ml NF-κB inhibitor (Celastrol, # ant-cls, InvivoGen®, San Diego, CA, USA) or 1 μg/ml TLR4 inhibitor (CLI-095, # tlrl-cli95, InvivoGen®, San Diego, CA, USA) for 1 h. Subsequently, RAW 264.7 cells were treated with LPS (1 μg/ml) alone or together with PBD-2 (10 μg/mL) for 16 h (n = 6 each group). RAW 264.7 cells treated with PBS were used as control. The levels of the cytokines in the supernatant of the cells were detected through ELISA.

NF-κB = NF-κB promoter activity, luciferase reporter assay in RAW 264.7 cells; assay type: cell-based, mouse; conditions: CLI-095 1 μg/ml, 1 h pre-treatment; LPS 1 μg/ml, 24 h; n = 6
Description: A luciferase reporter assay was used to detect the promoter activity of NF-κB. RAW 264.7 cells were seeded in a 24-well plate for 24 h and then cotransfected with 800 ng/well of the NF-κB reporter plasmid (pGL3-Basic) and 20 ng/well of pLR-TK. WT […] luciferase (Rluc) served as the reporter gene control vector. […] In the inhibition assay, the cells were pre-treated with 1 μg/ml TLR4 inhibitor for 1 h and treated with LPS (1 μg/ml) alone or together with PBD-2 (10 μg/mL) for 24 h (n = 6 each group). Luciferase units were detected to show the promoter activity of NF-κB ([28]).

[1] = cited from earlier work
Description: (§1) The mechanism of how AMPs modulate immune signaling pathways has yet to be fully understood. […] Instead, it interacted with TLR4. […] Therefore, th ...

TLR3 = TLR3 ligand poly (I:C); ref [6]; cited from earlier work
Description: as §1

[2] = test system: release of inflammatory cytokines; conditions: cited from earlier work
Description: Bacterial drug resistance has become a global concern. Endeavors in search for antibiotic substitutes are desperately needed. Antimicrobial peptides (AMPs) are natural anti-infective agents identified in various species and implicated in innate immunity ([1]). […] AMPs not only have a direct bactericidal activity but also regulate immune and inflammatory responses ([3]). As bactericides, cationic AMPs exert bactericidal act ... || The colitis caused by S. Typhimurium mainly results from intestinal mucosal inflammation after the breakage of intestinal epithelial barrier by pathogens ([26]).

Bordetella pertussis = conditions: pigs; ref [35]; cited from earlier work
Description: (§2) The antibiotic resistance of pathogenic bacteria has become a global threat ([30]). Defensins are natural peptides secreted by many species and implicated in resisting bacterial infection ([31]). PBD-2 is one of the defensins expressed in pigs. […] The invasion of S. Typhimurium can increase the expression of PBD-2 in porcine epithelial cells ([32]). […] PBD-2 also improves the growth perf ...

TLR2 = conditions: ref [50]; cited from earlier work
Description: as §1

TLR1 = conditions: ref [50]; cited from earlier work
Description: as §1

[3] = test system: signaling pathways downstream of TLR4; conditions: MyD88-dependent and MyD88-independent pathways; ref [50]; cited from earlier work
Description: as §1

[4] = test system: intestinal epithelial cells; conditions: cells transfected with genes encoding hBD-2 and hBD-3, infected with S. Typhimurium; vs untransfected; ref [44]; cited from earlier work
Description: The colitis caused by S. Typhimurium mainly results from intestinal mucosal inflammation after the breakage of intestinal epithelial barrier by pathogens ([26]).

[5] = cited from earlier work; remark: listed apart in the source
Description: as §2

[6] = target: T1, TLR4, purified recombinant protein (Cloud-clone # RPA753Mu01) (UniProt Q9QUK6 26-638); assay: ITC; Nano-ITC, 25°C; PBD-2 in the syringe (0.215 mM), TLR4 in the calorimeter cell (0.016 to 0.050 mM); control: PBD-2 into PBS; conditions: both partners purified
T1 construct: Toll-like receptor 4 (TLR4), bought recombinant protein; the vendor's data sheet is needed; also called purified TLR4; source: bought: Cloud-clone (# RPA753Mu01)
T1 sequence (looked up): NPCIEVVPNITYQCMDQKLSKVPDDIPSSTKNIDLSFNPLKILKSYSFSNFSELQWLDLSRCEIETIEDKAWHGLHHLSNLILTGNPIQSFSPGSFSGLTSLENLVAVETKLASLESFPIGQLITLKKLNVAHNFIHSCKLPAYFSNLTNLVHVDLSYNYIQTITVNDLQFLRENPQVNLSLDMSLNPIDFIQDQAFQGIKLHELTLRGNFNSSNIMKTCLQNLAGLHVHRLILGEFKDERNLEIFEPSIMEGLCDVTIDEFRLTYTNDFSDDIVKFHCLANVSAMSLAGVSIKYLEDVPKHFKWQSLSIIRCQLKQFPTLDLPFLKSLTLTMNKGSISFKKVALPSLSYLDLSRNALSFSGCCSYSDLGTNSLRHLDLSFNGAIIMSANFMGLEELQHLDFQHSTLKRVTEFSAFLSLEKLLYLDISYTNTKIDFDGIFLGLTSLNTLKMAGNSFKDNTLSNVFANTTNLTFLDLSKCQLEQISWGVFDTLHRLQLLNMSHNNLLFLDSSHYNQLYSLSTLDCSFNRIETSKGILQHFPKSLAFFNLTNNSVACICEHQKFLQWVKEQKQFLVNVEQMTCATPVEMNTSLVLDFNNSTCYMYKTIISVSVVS

CC1=C(O)C(=O)C=C2C1=CC=C1[C@@]2(C)CC[C@@]2(C)[C@@H]3C[C@](C)(C(=O)O)CC[C@]3(C)CC[C@]12C [NF-κB inhibitor, Celastrol, reference compound]
secretion of IL-1β triggered by LPS (RAW 264.7 cells; Celastrol 4 μg/ml): significantly reduced the secretion of TNF-α, IL-6, and IL-1β triggered by LPS
secretion of IL-6 triggered by LPS (RAW 264.7 cells; Celastrol 4 μg/ml): significantly reduced the secretion of TNF-α, IL-6, and IL-1β triggered by LPS
secretion of TNF-α triggered by LPS (RAW 264.7 cells; Celastrol 4 μg/ml): significantly reduced the secretion of TNF-α, IL-6, and IL-1β triggered by LPS

CCOC(=O)C1=CCCC[C@H]1S(=O)(=O)Nc1ccc(F)cc1Cl [TLR4 inhibitor, reference compound]
secretion of IL-1β triggered by LPS (RAW 264.7 cells; CLI-095 1 μg/ml): significantly reduced the secretion of TNF-α, IL-6, and IL-1β triggered by LPS
secretion of IL-6 triggered by LPS (RAW 264.7 cells; CLI-095 1 μg/ml): significantly reduced the secretion of TNF-α, IL-6, and IL-1β triggered by LPS
secretion of TNF-α triggered by LPS (RAW 264.7 cells; CLI-095 1 μg/ml): significantly reduced the secretion of TNF-α, IL-6, and IL-1β triggered by LPS
LPS-induced NF-κB promoter activity, TLR4 inhibitor (NF-κB): inhibited the LPS-induced promoter activity of NF-κB in RAW 264.7

LL-37: human AMP (LLGDFFRKSKEKIGKEFKRIVQRIKDFLRNLVPRTES; Antibacterial peptide LL-37; UniProt P49913 134-170, looked up)
anti-endotoxin ability ([1]; ref [48]): exert anti-endotoxin abilities by either disrupting LPS or inhibiting the LPS-induced production of TNF-α
TLR3-dependent immune responses (TLR3): TLR3-dependent immune responses are blocked by LL-37
release of inflammatory cytokines ([2]; ref [5]): suppress the release of inflammatory cytokines
suppression of inflammation ([2]; ref [6]): can suppress inflammation by inhibiting specific inflammatory signaling pathways

PR39
anti-endotoxin ability ([1]; ref [49]): exert anti-endotoxin abilities by either disrupting LPS or inhibiting the LPS-induced production of TNF-α

Porcine beta-defensin 1: another defensin from pigs and homolog of human beta-defensin 2 (NIGNSVSCLRNKGVCMPGKCAPKMKQIGTCGMPQVKCCKRK; ends and bridges not checked; cysteine pairing not given here; UniProt O62697 24-64, looked up)
protection against Bordetella pertussis infection (Bordetella pertussis): protects against Bordetella pertussis infection in pigs

hBD3: human β-defensin 3 (GIINTLQKYYCRVRGGRCAVLSCLPKEEQIGKCSTRGRKCCRRKK; ends and bridges not checked; cysteine pairing not given here; UniProt P81534 23-67, looked up)
interaction with TLR2 (TLR2): can interact with TLR1 and TLR2, leading to the activation of the MyD88-dependent pathway
binding to LPS ([1]; ref [50]): does not bind to LPS
interaction with TLR1 (TLR1): can interact with TLR1 and TLR2, leading to the activation of the MyD88-dependent pathway
LPS-induced inflammation [3]: could inhibit the LPS-induced inflammation by repressing the signaling pathways downstream of TLR4
suppression of inflammation ([2]; ref [7]): can suppress inflammation by inhibiting specific inflammatory signaling pathways
TNF-α and IL-6 secretion ([2]; ref [43]): suppressing TNF-α and IL-6 secretion
expression level of proinflammatory cytokines [4]: decreased expression level of proinflammatory cytokines

hBD-1: β-defensin of human (DHYNCVSSGGQCLYSACPIFTKIQGTCYRGKAKCCK; ends and bridges not checked; cysteine pairing not given here; UniProt P60022 33-68, looked up)
antibacterial effects in vivo ([5]; ref [36]): have antibacterial effects in vivo

hBD-2: β-defensin of human (GIGDPVTCLKSGAICHPVFCPRRYKQIGTCGLPGTKCCKKP; ends and bridges not checked; cysteine pairing not given here; UniProt O15263 24-64, looked up)
antibacterial effects in vivo ([5]; ref [36]): have antibacterial effects in vivo
expression level of proinflammatory cytokines [4]: decreased expression level of proinflammatory cytokines

rMBD3: β-defensin 3 (rMBD3) of mice (KKINNPVSCLRKGGRCWNRCIGNTRQIGSCGVPFLKCCKRK; ends and bridges not checked; cysteine pairing not given here; UniProt Q9WTL0 23-63, looked up)
antibacterial effects in vivo ([5]; mice, ref [37]): have antibacterial effects in vivo

B1: Porcine beta-defensin 2 (PBD-2), synthetic mature peptide (peptide)
peptide: DHYICAKKGGTCNFSPCPLFNRIEGTCYSGKAKCCIR
modifications: ends and bridges not checked; cysteine pairing not given here
notes: mature peptide of porcine beta-defensin 2 (PBD-2), pig; also called synthetic PBD-2; source: synthetic peptide (Neweast Biosciences, # 60001)
Kd [6]: 3.75 µM
